Test results from patent US7629323B2, “Manipulation of neuronal ion channels” (Northwestern University, priority 2003, dated 2009).

How the values were obtained:
Kv3.4 channel = biological target: T1, Kv3.4 channel (Rattus norvegicus, UniProt Q63734); conditions: COS-transfected cells, reversible; read-out: IC50, inhibition of Kv3.4 current; cited from earlier work
T1 construct: host or cells: COS cells
T1 sequence (Q63734 1-625): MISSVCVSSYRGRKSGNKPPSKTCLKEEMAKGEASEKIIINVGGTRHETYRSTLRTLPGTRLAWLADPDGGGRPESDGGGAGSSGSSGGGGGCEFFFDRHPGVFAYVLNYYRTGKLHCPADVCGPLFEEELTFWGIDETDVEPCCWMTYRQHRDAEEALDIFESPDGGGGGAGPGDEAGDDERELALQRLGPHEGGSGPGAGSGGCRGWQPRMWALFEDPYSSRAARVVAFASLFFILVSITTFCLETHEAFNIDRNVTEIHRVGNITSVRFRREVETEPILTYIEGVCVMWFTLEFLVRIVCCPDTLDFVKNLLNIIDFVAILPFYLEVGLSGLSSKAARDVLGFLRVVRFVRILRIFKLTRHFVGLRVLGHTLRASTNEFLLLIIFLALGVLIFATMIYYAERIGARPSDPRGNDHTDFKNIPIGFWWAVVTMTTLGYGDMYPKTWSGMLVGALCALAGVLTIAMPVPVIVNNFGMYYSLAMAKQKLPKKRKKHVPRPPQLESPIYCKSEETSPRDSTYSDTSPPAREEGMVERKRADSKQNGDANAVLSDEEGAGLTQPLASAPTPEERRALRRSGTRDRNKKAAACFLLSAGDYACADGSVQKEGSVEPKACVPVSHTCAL

[1] = tested on: Kv3 channels in FS neurons; experiment: Whole-cell voltage clamp of Kv3 delayed rectifier currents in acutely dissociated FS neurons; format: cell-based, rat
From the text: Tissue preparation. […] Hippocampal interneurons and GP were identified as CaMKII negative, GAD67 and parvalbumin positive neurons by single cell RT-PCR detection of corresponding mRNAs following physiology experiments (see below).
Electrophysiology. Whole-cell recordings used standard techniques^27,28. The internal solution consisted of (in mM): 30-90 K2SO4, 0-60 N-methyl-D-glucamine, 2 MgCl2, 40 HEPES, 5 EGTA, 12 phosphocreatine, 2 Na2ATP, 0.2 Na3GTP, and 0.1 leupeptin, pH 7.2 with H2SO4 (osmolarity 260-270 mOsm/l). The external solution consisted of (in mM): 140 Na-isethionate, 2 KCl, 4 MgCl2, 10 HEPES, 12 glucose and 0.001 TTX, pH 7.35 with NaOH (osmolarity 295-305 mOsm/l). The internal solution for current clamp recordings consisted of (in mM) 110 potassium methylsulphate, 2 MgCl2, 40 HEPES, 5 EGTA, 12 phosphocreatine, 2 Na2ATP, 0.2 Na3GTP, and 0.1 leupeptin, pH 7.2 with H2SO4 (osmolarity 260-270 mOsm/l). In the case of current clamp recordings, TTX was omitted from external solution. For the recordings in the presence of Ca^+2 ions EGTA was omitted from internal solution and 4 mM of MgCl2 was substituted by 2 mM of CaCl2 and 2 mM of MgCl2. All drugs were obtained from Sigma (St. Louis, […]) except BDS-I that was obtained from Alomone Labs (Jerusalem, Israel). Solutions were applied by gravity fed sewer pipe system. Recordings were obtained with Axon Instruments 200 patch-clamp amplifier and controlled and monitored with a PC running pClamp software (version 7.0) (Axon Instruments Inc., Union City, Calif.). […] After seal rupture, series resistance (2-10 MΩ) was compensated (75-90%) and periodically monitored. […] Activation data were fit with a Boltzmann equation of the form: 1/(1+exp ((Vh−V)/Vc), V stands for membrane potential. In the case of Kv3.4a current, an estimate of peak current was obtained by single exponential fit of decay phase extrapolated to the start of test pulse. In all other instances the voltage dependence of the currents was obtained from the amplitude of tail currents measured following 200 msec long voltage steps. […]

BDS-I (AAPCFCSGKPGRGDLWILRGTCPGGYGYTSNCYKWPNICCYPH)
IC50 (Kv3.4 channel): 0.047 µM | block of TEA-sensitive, Kv3 channel currents in FS neurons [1]: efficiently blocked | effect on delayed rectifier currents evoked by depolarization in FS neurons [1]: slowed the rising phase of delayed rectifier currents evoked by depolarization and reduced their amplitude | time for substantial unblocking of channels containing Kv3.4 subunits ([1]; at +20 mV): more than 5 msec
